Key:
Type in all cases: cell-based
[1] = test system: pathogen reduced platelets; assay: Lactate production by pathogen reduced platelets over five day storage; conditions: 10 mM 2-deoxy-D-glucose; five days in storage; riboflavin, 7 J/cm^2 320 nm light; vs platelets without 2-deoxy-D-glucose (FIG. 1)
Text: (§1) The following figures graph the quality of pathogen reduced platelets over a five day storage period. Platelets were separated from whole blood and collected using a blood collection device such as the COBE Spectra™ or TRIMA® apheresis systems available from Gambro BCT Inc., Lakewood, Colo., USA. However, it should be noted that any device known in the art for separating blood into components may be used to collect platelets without departing from the spirit and scope of the present invention.
(§2) Collected platelets were suspended in a volume of 278 mL of fluid containing […] riboflavin and either with or without a glycolytic inhibitor. 2-deoxy-D-glucose is one example of a glycolytic inhibitor which may be used in the present invention. The platelets were irradiated in a Sengewald bag (available from Sengewald Verpackungen GmbH & Co. KG) (however any bag known in the art may be used) at 7 J/cm^2 with a 320 nm broad band eximer light.

[2] = test system: pathogen reduced platelets; assay: Glucose consumption of pathogen reduced platelets over time; conditions: 10 mM 2-deoxy-D-glucose; riboflavin, 7 J/cm^2 320 nm light; vs platelets containing no 2-deoxy-D-glucose (FIG. 2)
Text: as §1, §2

[3] = test system: pathogen reduced platelets; assay: pH over time of a solution of pathogen reduced platelets; conditions: 10 mM 2-deoxy-D-glucose; five day storage; platelets without it show rapid drop in pH (FIG. 3)
Text: as §1, §2
As shown, 10 mM 2-deoxy-D-glucose appears to maintain the pH of the platelets at approximately pH 7.40. Platelets without 2-deoxy-D-glucose experience a rapid drop in pH. Such results are expected because lactic acid is not produced at high rates if the glycolysis pathway is inhibited, and consequently, the pH of the solution remains at a relatively constant level.

[4] = test system: pathogen treated platelets; assay: GMP-140 expression on the surface of pathogen treated platelets (platelet activation) over five day storage; conditions: solutions containing 2-deoxy-D-glucose, vs solutions without glycolytic inhibitors (FIG. 4)
Text: as §1, §2
FIG. 4 is a graph showing GMP-140 expression on the surface of pathogen treated platelets over a five day storage period. GMP-140 is a marker which appears on the surface of platelets which are activated. When transfused into a recipient, platelets which are activated during storage have a higher percentage of being quickly removed from the recipient's circulatory system than non-activated platelets.

**Q.** Which results are given for `O=CC[C@@H](O)[C@H](O)[C@H](O)CO` [2-deoxy-D-glucose]?
**A.** production of lactic acid [1]: marked decrease; glucose consumption [2]: slower rate; pH of the platelets maintained during storage [3]: ~7.40; percentage of GMP-140 expression [4]: lower percentage

From patent US20030219712A1, “Addition of glycolysis inhibitor to a pathogen reduction and storage solution” (priority 2002, published 2003)
